Measurements taken from US20260265246A1 (ICAHN SCHOOL OF MEDICINE AT MOUNT SINAI, priority 2021, published 2026).
Where two headings read alike, the source gives them in different places.

Tests used:
5HT2A receptor [1] = target: T1, 5HT2A receptor (Homo sapiens, UniProt P28223); assay: biochemical; assay type: binding; parameters: expressed in transfected cells; crude membranes
5HT2A receptor [2] = target: T1, 5HT2A receptor; assay: cell-based; parameters: expressed in transfected cells; host or cells: HEK293T cells, transient co-transfection; settings: HEK-293T, BRET2 Gαq dissociation, HEK293T cells, normalized to 5-HT; read-out: 5HT2A Gq Emax (%)
5HT2A receptor [3] = target: T1, 5HT2A receptor; assay: cell-based; parameters: expressed in transfected cells; host or cells: HEK293T cells, transient co-transfection; settings: HEK-293T, BRET1 beta-arrestin2 recruitment, HEK293T cells, normalized to 5-HT; read-out: 5HT2A β-Arr Emax (%)
[4] = 5HT2A Ki (nM), secondary radioligand binding, Ki from IC50 by Cheng-Prusoff
[5] = 5HT2A Ki (nM), secondary binding assay, Cheng-Prusoff

T1 sequence (P28223 whole entry): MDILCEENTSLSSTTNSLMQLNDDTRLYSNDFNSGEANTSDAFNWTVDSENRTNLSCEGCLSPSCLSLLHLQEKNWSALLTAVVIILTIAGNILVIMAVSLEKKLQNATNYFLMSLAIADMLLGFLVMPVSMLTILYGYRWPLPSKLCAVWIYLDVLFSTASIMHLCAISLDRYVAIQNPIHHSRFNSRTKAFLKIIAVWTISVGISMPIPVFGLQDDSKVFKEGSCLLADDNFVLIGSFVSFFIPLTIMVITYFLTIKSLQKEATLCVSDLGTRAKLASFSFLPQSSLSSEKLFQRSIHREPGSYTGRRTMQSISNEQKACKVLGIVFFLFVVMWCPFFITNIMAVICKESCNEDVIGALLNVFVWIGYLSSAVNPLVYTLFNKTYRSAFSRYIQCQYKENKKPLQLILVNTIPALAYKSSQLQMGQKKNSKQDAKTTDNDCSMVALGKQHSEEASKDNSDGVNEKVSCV

How did the Ki (5HT2A receptor [1]; [4]) turn out when `Cc1cnc2[nH]cc(C3=CCCNC3)c2c1` [Example 1, 5-methyl-3-(1,2,5,6-tetrahydropyridin-3-yl)-1H-pyrrolo[2,3-b]pyridine] was run?
The Ki was 1720 nM.

`Cc1cnc2[nH]cc(C3=CCCN(C)C3)c2c1` [Example 5, 5-methyl-3-(1-methyl-1,2,5,6-tetrahydropyridin-3-yl)-1H-pyrrolo[2,3-b]pyridine] was tested. Which Ki (5HT2A receptor [1]; [4]) did it give?
The Ki was 717 nM.

For `C1=C(c2c[nH]c3nccc(-c4ccccc4)c23)CNCC1` [Example 12, 4-phenyl-3-(1,2,5,6-tetrahydropyridin-3-yl)-1H-pyrrolo[2,3-b]pyridine], which Ki (5HT2A receptor [1]; [4]) is on record?
Its Ki is 191 nM.

How did the Ki (5HT2A receptor [1]; [4]) turn out when `CC(C)c1ccc2[nH]cc(C3=CCCN(C)C3)c2c1` [Example 24, 5-isopropyl-3-(1-methyl-1,2,5,6-tetrahydropyridin-3-yl)-1H-indole] was run?
Its Ki is 105 nM.

With `C1=C(c2c[nH]c3ccc(-c4ccccc4)cc23)CNCC1` [Example 27, 5-phenyl-3-(1,2,5,6-tetrahydropyridin-3-yl)-1H-indole] as the molecule, how does the Ki (5HT2A receptor [1]; [4]) read?
Its Ki is 1480 nM.

How did the Ki (5HT2A receptor [1]; [4]) turn out when `CN1CCC=C(c2c[nH]c3ccc(-c4ccccc4)cc23)C1` [Example 28, 3-(1-methyl-1,2,5,6-tetrahydropyridin-3-yl)-5-phenyl-1H-indole] was run?
The Ki was 498 nM.

How did the Ki (5HT2A receptor [1]; [4]) turn out when `Cc1ccc2c(C3=CCCNC3)c[nH]c2c1` [Example 29, 6-methyl-3-(1,2,5,6-tetrahydropyridin-3-yl)-1H-indole] was run?
The Ki was 1200 nM.

For `Cc1ccc2c(C3=CCCN(C)C3)c[nH]c2c1` [Example 30, 6-methyl-3-(1-methyl-1,2,5,6-tetrahydropyridin-3-yl)-1H-indole], which Ki (5HT2A receptor [1]; [4]) is on record?
Its Ki is 647 nM.

With `CC(C)c1ccc2c(C3=CCCNC3)c[nH]c2c1` [Example 33, 6-isopropyl-3-(1,2,5,6-tetrahydropyridin-3-yl)-1H-indole] as the molecule, how does the Ki (5HT2A receptor [1]; [4]) read?
The Ki was 1260 nM.

`CC(C)c1ccc2c(C3=CCCN(C)C3)c[nH]c2c1` [Example 34, 6-isopropyl-3-(1-methyl-1,2,5,6-tetrahydropyridin-3-yl)-1H-indole] was tested. Which Ki (5HT2A receptor [1]; [4]) did it give?
The Ki was 486 nM.

`COc1ccc2c(C3=CCCNC3)c[nH]c2c1` [Example 35, 6-methoxy-3-(1,2,5,6-tetrahydropyridin-3-yl)-1H-indole] was tested. Which Ki (5HT2A receptor [1]; [4]) did it give?
The Ki was > 10000 nM.

For `COc1ccc2c(C3=CCCN(C)C3)c[nH]c2c1` [Example 36, 6-methoxy-3-(1-methyl-1,2,5,6-tetrahydropyridin-3-yl)-1H-indole], which Ki (5HT2A receptor [1]; [4]) is on record?
Its Ki is 8500 nM.

Which Ki (5HT2A receptor [1]; [4]) does the source give for `CC(C)(C)c1ccc2c(C3=CCCNC3)c[nH]c2c1` [Example 37, 6-(tert-butyl)-3-(1,2,5,6-tetrahydropyridin-3-yl)-1H-indole] here?
Its Ki is 9910 nM.

With `CN1CCC=C(c2c[nH]c3cc(C(C)(C)C)ccc23)C1` [Example 38, 6-(tert-butyl)-3-(1-methyl-1,2,5,6-tetrahydropyridin-3-yl)-1H-indole] as the molecule, how does the Ki (5HT2A receptor [1]; [4]) read?
The Ki was 7880 nM.

Which Ki (5HT2A receptor [1]; [4]) does the source give for `C1=C(c2c[nH]c3cc(-c4ccccc4)ccc23)CNCC1` [Example 39, 6-phenyl-3-(1,2,5,6-tetrahydropyridin-3-yl)-1H-indole] here?
The Ki was 6760 nM.

For `CN1CCC=C(c2c[nH]c3cc(-c4ccccc4)ccc23)C1` [Example 40, 3-(1-methyl-1,2,5,6-tetrahydropyridin-3-yl)-6-phenyl-1H-indole], which Ki (5HT2A receptor [1]; [4]) is on record?
The Ki was 1330 nM.

For `CN1CCC=C(c2cn(C)c3ncccc23)C1` [Example 48, 1-methyl-3-(1-methyl-1,2,5,6-tetrahydropyridin-3-yl)-1H-pyrrolo[2,3-b]pyridine], which Ki (5HT2A receptor [1]; [4]) is on record?
The Ki was 423 nM.

With `CCN(CC)C(=O)NC1C=C(c2c[nH]c3ncccc23)CNC1` (stereo not shown) [Example 49, 3-(5-(1H-pyrrolo[2,3-b]pyridin-3-yl)-1,2,3,6-tetrahydropyridin-3-yl)-1,1-diethylurea] as the molecule, how does the Ki (5HT2A receptor [1]; [4]) read?
Its Ki is 5580 nM.

How did the Ki (5HT2A receptor [1]; [4]) turn out when `COc1cccc2c(C3=CCCNC3)c[nH]c12` [Example 51, 7-methoxy-3-(1,2,5,6-tetrahydropyridin-3-yl)-1H-indole] was run?
Its Ki is > 10000 nM.

How did the Ki (5HT2A receptor [1]; [4]) turn out when `CC(C)c1cccc2c(C3=CCCN(C)C3)c[nH]c12` [Example 54, 7-isopropyl-3-(1-methyl-1,2,5,6-tetrahydropyridin-3-yl)-1H-indole] was run?
The Ki was 510 nM.

For `CN1CCC=C(c2c[nH]c3c(C(C)(C)C)cccc23)C1` [Example 55, 7-(tert-butyl)-3-(1-methyl-1,2,5,6-tetrahydropyridin-3-yl)-1H-indole], which Ki (5HT2A receptor [1]; [4]) is on record?
Its Ki is 374 nM.

`CN1CCC=C(c2c[nH]c3c(C(=O)O)cccc23)C1` [Example 57, 3-(1-methyl-1,2,5,6-tetrahydropyridin-3-yl)-1H-indole-7-carboxylic acid] was tested. Which Ki (5HT2A receptor [1]; [4]) did it give?
The Ki was > 10000 nM.

How did the Ki (5HT2A receptor [1]; [4]) turn out when `CN1CCC=C(c2c[nH]c3c(CO)cccc23)C1` [Example 58, (3-(1-methyl-1,2,5,6-tetrahydropyridin-3-yl)-1H-indol-7-yl)methanol] was run?
The Ki was > 10000 nM.

`CC(C)c1cccc2c(C3=CCCN(Cc4ccccc4)C3)c[nH]c12` [Example 70, 3-(1-benzyl-1,2,5,6-tetrahydropyridin-3-yl)-7-(propan-2-yl)-1H-indole] was tested. Which Ki (5HT2A receptor [1]; [4]) did it give?
Its Ki is 2050 nM.

Which Ki (5HT2A receptor [1]; [4]) does the source give for `CC(C)(C)c1cccc2c(C3=CCCN(Cc4ccccc4)C3)c[nH]c12` [Example 72, 3-(1-benzyl-1,2,5,6-tetrahydropyridin-3-yl)-7-tert-butyl-1H-indole] here?
The Ki was 734 nM.

Which Ki (5HT2A receptor [1]; [4]) does the source give for `O=C(O)c1cccc2c(C3=CCCN(Cc4ccccc4)C3)c[nH]c12` [Example 74, 3-(1-benzyl-1,2,5,6-tetrahydropyridin-3-yl)-1H-indole-7-carboxylic acid] here?
Its Ki is > 10000 nM.

Which Ki (5HT2A receptor [1]; [4]) does the source give for `OCc1cccc2c(C3=CCCN(Cc4ccccc4)C3)c[nH]c12` [Example 75, (3-(1-benzyl-1,2,5,6-tetrahydropyridin-3-yl)-1H-indol-7-yl)methanol] here?
Its Ki is > 10000 nM.

`COc1ccc2[nH]nc(C3=CCCNC3)c2c1` [Example 87, 5-methoxy-3-(1,2,5,6-tetrahydropyridin-3-yl)-1H-indazole] was tested. Which Emax (5HT2A receptor [2]) did it give?
The Emax was 84.2%.

And the Emax (5HT2A receptor [3])?
Its Emax is 80%.

How did the Ki (5HT2A receptor [1]; [4]) turn out when `COc1cccc2c(C3=CCCNC3)n[nH]c12` [Example 92, 7-methoxy-3-(1,2,5,6-tetrahydropyridin-3-yl)-1H-indazole] was run?
The Ki was 1090 nM.

For `Cc1ccc2c(C3=CCCN(C)C3)n[nH]c2c1` [Example 93, 6-methyl-3-(1-methyl-1,2,5,6-tetrahydropyridin-3-yl)-1H-indazole], which Ki (5HT2A receptor [1]; [4]) is on record?
Its Ki is 2920 nM.

Which Ki (5HT2A receptor [1]; [4]) does the source give for `CN1CCC=C(c2n[nH]c3cc(C#N)ccc23)C1` [Example 96, 3-(1-methyl-1,2,5,6-tetrahydropyridin-3-yl)-1H-indazole-6-carbonitrile] here?
The Ki was 5470 nM.

For `COc1cccc2c(C3=CCCN(C)C3)n[nH]c12` [Example 109, 7-methoxy-3-(1-methyl-1,2,5,6-tetrahydropyridin-3-yl)-1H-indazole], which Ki (5HT2A receptor [1]; [4]) is on record?
Its Ki is > 10000 nM.

Which Ki (5HT2A receptor [1]; [4]) does the source give for `Clc1cccn2c(C3=CCCNC3)cnc12` [Example 110, 8-chloro-3-(1,2,5,6-tetrahydropyridin-3-yl)imidazo[1,2-a]pyridine] here?
Its Ki is > 10000 nM.

How did the Ki (5HT2A receptor [1]; [4]) turn out when `Fc1cccn2c(C3=CCCNC3)cnc12` [Example 111, 8-fluoro-3-(1,2,5,6-tetrahydropyridin-3-yl)imidazo[1,2-a]pyridine] was run?
Its Ki is > 10000 nM.

`Cc1cccn2c(C3=CCCNC3)cnc12` [Example 112, 8-methyl-3-(1,2,5,6-tetrahydropyridin-3-yl)imidazo[1,2-a]pyridine] was tested. Which Ki (5HT2A receptor [1]; [4]) did it give?
Its Ki is 9040 nM.

`C1=C(c2c[nH]c3cnccc23)CNCC1` [Example 142, 3-(1,2,5,6-tetrahydropyridin-3-yl)-1H-pyrrolo[2,3-c]pyridine] was tested. Which Ki (5HT2A receptor [1]; secondary binding assay, Cheng-Prusoff, read-out: 5HT2A Ki) did it give?
The Ki was 152 nM.

How did the Ki (5HT2A receptor [1]; [5]) turn out when `CCCN1CCC=C(c2c[nH]c3cnccc23)C1` [Example 143, 3-(1-propyl-1,2,5,6-tetrahydropyridin-3-yl)-1H-pyrrolo[2,3-c]pyridine] was run?
Its Ki is 9760 nM.

How did the Ki (5HT2A receptor [1]; [5]) turn out when `NC1CCC=C(c2n[nH]c3c(Cl)cccc23)C1` (stereo not shown) [Example 169, 3-(7-chloro-1H-indazol-3-yl)cyclohex-3-en-1-amine] was run?
The Ki was > 10000 nM.

For `CN(C)C1CCC=C(c2n[nH]c3c(Cl)cccc23)C1` (stereo not shown) [Example 170, 3-(7-chloro-1H-indazol-3-yl)-N,N-dimethylcyclohex-3-en-1-amine], which Ki (5HT2A receptor [1]; [5]) is on record?
Its Ki is > 10000 nM.

How did the Ki (5HT2A receptor [1]; [5]) turn out when `CCCNC1CCC=C(c2n[nH]c3c(Cl)cccc23)C1` (stereo not shown) [Example 171, 3-(7-chloro-1H-indazol-3-yl)-N-propylcyclohex-3-en-1-amine] was run?
The Ki was > 10000 nM.

For `Clc1cccc2c(C3=CCCN(C4CCC4)C3)n[nH]c12` [Example 174, 7-chloro-3-(1-cyclobutyl-1,2,5,6-tetrahydropyridin-3-yl)-1H-indazole], which Ki (5HT2A receptor [1]; [5]) is on record?
The Ki was 9760 nM.

How did the Ki (5HT2A receptor [1]; [5]) turn out when `CCCN1CCC=C(c2n[nH]c3c(C#N)cccc23)C1` [Example 176, 3-(1-propyl-1,2,5,6-tetrahydropyridin-3-yl)-1H-indazole-7-carbonitrile] was run?
The Ki was > 10000 nM.

How did the Ki (5HT2A receptor [1]; [5]) turn out when `CCCN1CCC=C(c2n[nH]c3c(Cl)ccc(F)c23)C1` [Example 177, 7-chloro-4-fluoro-3-(1-propyl-1,2,5,6-tetrahydropyridin-3-yl)-1H-indazole] was run?
Its Ki is 1830 nM.

Which Ki (5HT2A receptor [1]; [5]) does the source give for `Clc1cccc2c(C3=CCCN(C4COC4)C3)n[nH]c12` [Example 178, 7-chloro-3-(1-(oxetan-3-yl)-1,2,5,6-tetrahydropyridin-3-yl)-1H-indazole] here?
The Ki was > 10000 nM.

With `FC1(F)CC(N2CCC=C(c3n[nH]c4c(Cl)cccc34)C2)C1` [Example 179, 7-chloro-3-(1-(3,3-difluorocyclobutyl)-1,2,5,6-tetrahydropyridin-3-yl)-1H-indazole] as the molecule, how does the Ki (5HT2A receptor [1]; [5]) read?
The Ki was 8620 nM.

`Cc1cccc2c(C34CNCCC3C4(F)F)n[nH]c12` (stereo not shown) [Example 189, 3-(7,7-difluoro-3-azabicyclo[4.1.0]heptan-1-yl)-7-methyl-1H-indazole] was tested. Which Ki (5HT2A receptor [1]; [5]) did it give?
Its Ki is 6920 nM.

`Fc1cccc2c(C34CNCCC3C4(F)F)n[nH]c12` (stereo not shown) [Example 190, 3-(7,7-difluoro-3-azabicyclo[4.1.0]heptan-1-yl)-7-fluoro-1H-indazole] was tested. Which Ki (5HT2A receptor [1]; [5]) did it give?
Its Ki is 5370 nM.

For `N#Cc1cccc2c(C34CNCCC3C4(F)F)n[nH]c12` (stereo not shown) [Example 192, 3-(7,7-difluoro-3-azabicyclo[4.1.0]heptan-1-yl)-1H-indazole-7-carbonitrile], which Ki (5HT2A receptor [1]; [5]) is on record?
The Ki was > 10000 nM.
